Assay results taken from ChEMBL document CHEMBL4196089, “Design, synthesis, biological evaluation and in vivo testing of dual phosphodiesterase 5 (PDE5) and histone deacetylase 6 (HDAC6)-selective inhibitors for the treatment of Alzheimer's disease” (Eur J Med Chem, 2018).

What was measured:
CYP3A4 = CYP3A4 (Homo sapiens, UniProt P08684); test: Inhibition of CYP3A4 in human liver microsomes at 10 uM after 10 mins in presence of NADPH by LC-MS/MS analysis relative to control; assay type: ADME
Histone deacetylase 4 = Histone deacetylase 4 (Homo sapiens, UniProt P56524); test: Inhibition of human HDAC4
Histone deacetylase 4, sequence (P56524 whole entry): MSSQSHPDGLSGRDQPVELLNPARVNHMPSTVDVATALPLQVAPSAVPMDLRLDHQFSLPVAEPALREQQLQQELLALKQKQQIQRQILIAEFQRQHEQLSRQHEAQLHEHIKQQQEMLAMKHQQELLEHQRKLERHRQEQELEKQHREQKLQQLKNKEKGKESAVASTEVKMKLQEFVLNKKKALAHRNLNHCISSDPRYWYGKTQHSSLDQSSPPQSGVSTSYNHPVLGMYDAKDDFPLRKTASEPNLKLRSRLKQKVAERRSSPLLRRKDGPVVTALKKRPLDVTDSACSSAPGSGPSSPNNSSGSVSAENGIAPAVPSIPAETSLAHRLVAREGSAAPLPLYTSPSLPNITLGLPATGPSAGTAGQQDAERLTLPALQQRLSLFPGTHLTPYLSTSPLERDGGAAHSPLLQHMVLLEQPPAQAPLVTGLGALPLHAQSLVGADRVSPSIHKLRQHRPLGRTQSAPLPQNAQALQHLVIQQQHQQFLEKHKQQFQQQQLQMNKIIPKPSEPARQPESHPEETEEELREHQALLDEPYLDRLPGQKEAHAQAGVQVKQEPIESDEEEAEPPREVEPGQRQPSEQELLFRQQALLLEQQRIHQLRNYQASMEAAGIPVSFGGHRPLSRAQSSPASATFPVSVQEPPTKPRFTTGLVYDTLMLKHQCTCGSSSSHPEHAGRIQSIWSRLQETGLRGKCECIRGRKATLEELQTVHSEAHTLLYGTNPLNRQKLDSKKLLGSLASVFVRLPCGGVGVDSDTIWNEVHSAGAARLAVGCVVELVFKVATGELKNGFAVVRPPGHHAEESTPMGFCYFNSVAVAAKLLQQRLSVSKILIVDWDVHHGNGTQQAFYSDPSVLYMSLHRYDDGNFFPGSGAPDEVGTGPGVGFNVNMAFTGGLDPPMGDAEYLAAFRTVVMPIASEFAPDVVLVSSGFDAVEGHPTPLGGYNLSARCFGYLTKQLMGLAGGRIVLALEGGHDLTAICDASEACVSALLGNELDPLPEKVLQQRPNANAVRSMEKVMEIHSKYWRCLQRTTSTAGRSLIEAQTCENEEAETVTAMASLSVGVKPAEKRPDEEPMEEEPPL

CYP2C9 = CYP2C9 (Homo sapiens, UniProt P11712); test: Inhibition of CYP2C9 in human liver microsomes at 10 uM after 10 mins in presence of NADPH by LC-MS/MS analysis relative to control; assay type: ADME
CYP2C9, sequence (P11712 whole entry): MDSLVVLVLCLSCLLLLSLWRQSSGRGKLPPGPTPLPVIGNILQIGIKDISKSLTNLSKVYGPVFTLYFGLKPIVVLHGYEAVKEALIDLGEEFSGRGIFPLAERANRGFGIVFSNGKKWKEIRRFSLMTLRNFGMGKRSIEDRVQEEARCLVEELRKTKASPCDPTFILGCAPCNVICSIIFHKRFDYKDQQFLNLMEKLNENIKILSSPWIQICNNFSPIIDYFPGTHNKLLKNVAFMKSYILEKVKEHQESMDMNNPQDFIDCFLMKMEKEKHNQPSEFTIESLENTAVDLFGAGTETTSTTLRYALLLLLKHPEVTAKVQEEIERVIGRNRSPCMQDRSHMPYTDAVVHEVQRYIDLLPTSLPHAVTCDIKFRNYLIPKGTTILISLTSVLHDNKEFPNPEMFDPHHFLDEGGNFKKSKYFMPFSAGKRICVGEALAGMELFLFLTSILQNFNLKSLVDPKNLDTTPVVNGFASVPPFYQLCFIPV

[1] = target: Cone cGMP-specific 3',5'-cyclic phosphodiesterase subunit alpha' (Homo sapiens, UniProt P51160); test: Inhibition of PDE6C (unknown origin) using FAM-cGMP as substrate by fluorescence assay
Cone cGMP-specific 3',5'-cyclic phosphodiesterase subunit alpha', sequence (P51160 whole entry): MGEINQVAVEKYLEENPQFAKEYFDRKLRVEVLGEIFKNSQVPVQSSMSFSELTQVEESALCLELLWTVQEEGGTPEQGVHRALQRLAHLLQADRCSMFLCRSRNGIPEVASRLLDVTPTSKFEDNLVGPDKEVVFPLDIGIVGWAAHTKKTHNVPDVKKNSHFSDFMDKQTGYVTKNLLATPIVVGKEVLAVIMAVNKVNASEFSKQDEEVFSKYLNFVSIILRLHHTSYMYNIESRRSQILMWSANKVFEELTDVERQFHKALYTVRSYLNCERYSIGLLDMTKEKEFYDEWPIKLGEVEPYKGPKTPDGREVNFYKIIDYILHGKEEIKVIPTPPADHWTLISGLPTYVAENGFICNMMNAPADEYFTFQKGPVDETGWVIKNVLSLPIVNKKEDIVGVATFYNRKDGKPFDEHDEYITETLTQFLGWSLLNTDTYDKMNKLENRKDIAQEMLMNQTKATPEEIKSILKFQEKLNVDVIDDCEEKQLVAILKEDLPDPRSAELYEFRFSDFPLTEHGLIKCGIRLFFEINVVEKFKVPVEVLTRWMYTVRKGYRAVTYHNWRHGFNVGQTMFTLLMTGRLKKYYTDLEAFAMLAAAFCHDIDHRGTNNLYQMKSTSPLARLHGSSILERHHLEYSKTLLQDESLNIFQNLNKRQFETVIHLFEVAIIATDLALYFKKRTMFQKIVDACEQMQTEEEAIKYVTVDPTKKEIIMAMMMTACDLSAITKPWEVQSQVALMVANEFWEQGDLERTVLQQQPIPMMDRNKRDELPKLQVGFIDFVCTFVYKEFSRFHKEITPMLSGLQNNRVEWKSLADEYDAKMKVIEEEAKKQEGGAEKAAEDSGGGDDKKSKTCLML

cells [2] = conditions: Homo sapiens, SH-SY5Y, 2 h, read-out: FC
Mus musculus = test: In vivo inhibition of PDE5 in mouse assessed as increase in pCREB-Ser133 level in hippocampus at 40 mg/kg, ip measured after 1 hr by Western blot analysis; assay type: functional; design: scale not given: the % may be the effect or the level left
cells [3] = conditions: Homo sapiens, SH-SY5Y, 2 h, read-out: FC; remark: listed apart in the source
[4] = target: T1, Protein deacetylase HDAC6 (Homo sapiens, UniProt Q9UBN7); test: Inhibition of full length human recombinant N-terminal GST-tagged HDAC6 expressed in baculovirus infected sf9 cells using fluorogenic HDAC substrate 3 after 30 mins by fluorescence assay
T1 sequence (Q9UBN7 whole entry): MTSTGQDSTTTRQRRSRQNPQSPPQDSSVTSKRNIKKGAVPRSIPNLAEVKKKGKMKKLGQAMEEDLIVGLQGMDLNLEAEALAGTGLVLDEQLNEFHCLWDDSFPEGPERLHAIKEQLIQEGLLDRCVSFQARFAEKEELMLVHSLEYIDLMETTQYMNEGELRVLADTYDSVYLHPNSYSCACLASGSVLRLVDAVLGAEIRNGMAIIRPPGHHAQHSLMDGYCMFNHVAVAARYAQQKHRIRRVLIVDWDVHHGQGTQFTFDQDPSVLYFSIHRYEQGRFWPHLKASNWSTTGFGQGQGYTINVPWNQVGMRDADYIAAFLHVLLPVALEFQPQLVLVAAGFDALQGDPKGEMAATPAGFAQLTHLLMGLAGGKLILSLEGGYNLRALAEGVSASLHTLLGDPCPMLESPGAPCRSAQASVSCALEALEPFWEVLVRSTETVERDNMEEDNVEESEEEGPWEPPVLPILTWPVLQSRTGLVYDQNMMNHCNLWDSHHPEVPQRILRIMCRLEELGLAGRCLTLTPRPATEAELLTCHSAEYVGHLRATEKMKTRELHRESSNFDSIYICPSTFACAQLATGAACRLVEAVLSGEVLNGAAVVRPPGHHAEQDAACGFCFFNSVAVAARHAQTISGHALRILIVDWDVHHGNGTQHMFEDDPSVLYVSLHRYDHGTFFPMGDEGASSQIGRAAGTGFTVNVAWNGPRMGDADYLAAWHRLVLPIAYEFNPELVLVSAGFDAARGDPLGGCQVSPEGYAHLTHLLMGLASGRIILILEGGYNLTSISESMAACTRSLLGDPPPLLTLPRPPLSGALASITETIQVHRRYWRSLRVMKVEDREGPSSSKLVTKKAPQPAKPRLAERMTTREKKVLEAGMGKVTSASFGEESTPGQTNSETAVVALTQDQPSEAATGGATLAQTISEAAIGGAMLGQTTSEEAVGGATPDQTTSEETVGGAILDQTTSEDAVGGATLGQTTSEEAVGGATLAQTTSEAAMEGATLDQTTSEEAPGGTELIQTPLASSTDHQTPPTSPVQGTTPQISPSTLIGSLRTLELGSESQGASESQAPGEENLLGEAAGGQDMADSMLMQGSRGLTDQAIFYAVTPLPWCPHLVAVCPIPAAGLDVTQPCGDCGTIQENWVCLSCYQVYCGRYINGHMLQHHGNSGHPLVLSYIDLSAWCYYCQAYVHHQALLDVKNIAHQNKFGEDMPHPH

[5] = Cytotoxicity against human THLE2 cells after 72 hrs by vialight cell proliferation assay; assay type: cell-based, THLE-2; conditions: read-out: LC50
[6] = Half life in human liver microsomes at 1 uM preincubated for 10 mins followed by NADPH addition measured up to 60 mins by LC-MS/MS analysis; assay type: ADME, microsome

CYP3A4, sequence (P08684 whole entry): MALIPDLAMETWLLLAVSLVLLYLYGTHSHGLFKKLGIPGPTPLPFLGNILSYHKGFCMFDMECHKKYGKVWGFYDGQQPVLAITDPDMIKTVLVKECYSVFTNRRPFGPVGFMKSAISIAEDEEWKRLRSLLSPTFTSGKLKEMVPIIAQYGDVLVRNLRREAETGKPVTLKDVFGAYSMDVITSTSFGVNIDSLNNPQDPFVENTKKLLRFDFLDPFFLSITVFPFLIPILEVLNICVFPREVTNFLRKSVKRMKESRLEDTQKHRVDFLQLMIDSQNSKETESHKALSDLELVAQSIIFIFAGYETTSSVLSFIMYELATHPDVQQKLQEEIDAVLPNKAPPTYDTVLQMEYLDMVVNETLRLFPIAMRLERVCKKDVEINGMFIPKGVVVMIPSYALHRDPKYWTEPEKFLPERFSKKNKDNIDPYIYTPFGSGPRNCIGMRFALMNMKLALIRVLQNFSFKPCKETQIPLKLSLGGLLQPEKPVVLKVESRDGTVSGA

For `CCCc1nn(C)c2c(=O)[nH]c(-c3cc(Cc4ccc(C(=O)NO)s4)ccc3OCC)nc12`, the inhibition at 10 min, 10 µM (CYP3A4) was 23.4%, the IC50 (Histone deacetylase 4) was > 10000 nM and the inhibition at 10 min, 10 µM (CYP2C9) was < 50%. It also gave an IC50 [1] of 1.4 nM, a fold induction at 0.5 µM (cells [2]) of 8.2 and an Activity (Mus musculus) of 48%. It also gave a fold induction at 0.1 µM (cells [3]) of 1.8, an IC50 [4] of 15 nM and a CC50 at 72 h [5] of 6810 nM. For the same compound, the half-life at 1 µM [6] was 32.7 min.
